These results are taken from publication PMC11249824 (Clinical and Translational Science, 2024).

Marks after values point to notes of the source that are not given here.

For data set [1] the following is noted: attributed to sequestration by β‐cyclodextrin; cited from earlier work.
The format of data set [2] is in vivo, healthy male subjects.
The subject of the next data set is ACKR3/CXCR7. Particulars: cited from earlier work.
Another data set is described as follows: Safety and tolerability. The class given is in vivo, healthy male subjects. To be noted: for Abdominal pain, number of adverse events / Abdominal pain, number of subjects / Diarrhea, number of adverse events / Diarrhea, number of subjects / Headache, number of adverse events / Headache, number of subjects / Nausea, number of adverse events / Nausea, number of subjects / Number of different TEAEs / Number of subjects with at least one TEAE / Somnolence, number of adverse events / Somnolence, number of subjects / Total number of TEAEs: N = 16.

The conditions of data set [3]: cited from earlier work.
The next data set concerns CYP3A4. Particulars: in vitro, preclinical observation; cited from earlier work.
For data set [4] the following is noted: cited from earlier work. This is another data set of the same source.
The mark [5] stands for this setting: Treatment A: single oral 10 mg ACT‐1004‐1239 alone, fed, geometric mean (95% CI), N = 16.
The mark [6] stands for this setting: Treatment A (ACT‐1004‐1239 alone).
[7] abbreviates: Treatment B2 (ACT‐1004‐1239 + itraconazole).
Setting [8] is: up to and including a dose of 200 mg.

Turning to `O=C(Nc1ccc(OC(F)(F)Cl)cc1)c1cnc(N2CC[C@@H](O)C2)c(-c2ccn[nH]2)c1` [asciminib], the “decrease of exposure when given concomitantly with an itraconazole solution” value in data set [1] is given as “approximately 50%”.
Consider `O=C(N[C@H]1CCN(CC2CC2)C[C@@H]1C(=O)NC1(c2ncccn2)CC1)c1cc(-c2ccc(F)cc2F)on1` [ACT‐1004‐1239], for which, in data set [2] (setting [5]), the “AUC0−t” value is given as 300 (257, 352) ng * h/mL and the Cmax is recorded as 25.6 (21.1, 31.0) ng/mL. Further, the “AUC0−inf” value in data set [2] (Treatment A: single oral 10 mg ACT‐1004‐1239 alone, fed, geometric mean (95% CI), n = 10) is 326 (279, 380) ^a ng * h/mL. The t max in data set [2] (Treatment A: single oral 10 mg ACT‐1004‐1239 alone, fed, median (range), N = 16) is recorded as 2.00 (0.5, 6.0) h. Moreover, the “median of differences in t max (90% CI)” value in data set [2] (Treatment B2 (with itraconazole) vs Treatment A (alone), Hodges‐Lehmann estimate) is 30 min. The “increase of exposure to ACT‐1004‐1239 with itraconazole versus alone” value in data set [2] (concomitant multiple doses 200 mg itraconazole (CYP3A4 inhibition)) was “up to 2.9 fold”. The “CXCL12 plasma concentration (target engagement)” value in the data set on ACKR3/CXCR7 is “dose‐dependent increase”. In the data set “Safety and tolerability” (setting [6]), the “Abdominal pain, number of adverse events” value is reported as 0 nAEs; the “Abdominal pain, number of subjects” value is 0 n (%); the “Diarrhea, number of adverse events” value came out at 0 nAEs; the “Diarrhea, number of subjects” value is given as 0 n (%). For the same molecule, in “Safety and tolerability” (setting [6]), the “Headache, number of adverse events” value stood at 2 nAEs; the “Headache, number of subjects” value was 1 (6.3) n (%); the “Nausea, number of adverse events” value worked out at 2 nAEs; the “Nausea, number of subjects” value was 2 (12.5) n (%). Besides, in “Safety and tolerability” (setting [6]), the “Number of different TEAEs” value worked out at 3 nAEs; the “Number of subjects with at least one TEAE” value was 3 (18.8) n (%); the “Somnolence, number of adverse events” value came out at 1 nAEs; the “Somnolence, number of subjects” value was 1 (6.3) n (%). Further, the “Total number of TEAEs” value in “Safety and tolerability” (setting [6]) stood at 5 nAEs. Moreover, in the data set “Safety and tolerability” (setting [7]), the “Abdominal pain, number of adverse events” value worked out at 1 nAEs; the “Abdominal pain, number of subjects” value is 1 (6.3) n (%); the “Diarrhea, number of adverse events” value was 1 nAEs; the “Diarrhea, number of subjects” value is on record as 1 (6.3) n (%). In addition, in the data set “Safety and tolerability” (setting [7]), the “Headache, number of adverse events” value is listed as 1 nAEs; the “Headache, number of subjects” value is 1 (6.3) n (%); the “Nausea, number of adverse events” value is listed as 0 nAEs; the “Nausea, number of subjects” value was 0 n (%). In addition, in the data set “Safety and tolerability” (setting [7]), the “Number of different TEAEs” value amounted to 3 nAEs; the “Number of subjects with at least one TEAE” value is 3 (18.8) n (%); the “Somnolence, number of adverse events” value turned out to be 0 nAEs; the “Somnolence, number of subjects” value was 0 n (%). Besides, the “Total number of TEAEs” value in the data set “Safety and tolerability” (setting [7]) is listed as 3 nAEs. Further, the tolerability result in the data set “Safety and tolerability” (all treatments, 10 mg ACT‐1004‐1239 in absence and presence of itraconazole) was “well‐tolerated”. Moreover, the “overall incidence of subjects with TEAEs” value in the data set “Safety and tolerability” (in each treatment (A and B2)) was 18.8%. The “effect of food on exposure” value in data set [3] was “no effect of food”. Moreover, the “dose dependence of exposure” value in data set [3] (dose range 1–200 mg) was “dose‐proportional”. Also, in data set [3] (healthy subjects), the absolute bioavailability is 53% and the volume of distribution is 183 L. In data set [3] (setting [8]), the QTc liability result is recorded as “without QTc liability”; the safety and tolerability entry is “safe and well‐tolerated”. Also, the “dependency of metabolism on CYP3A4” value in the data set on CYP3A4 is on record as 94%. Moreover, the “contribution of elimination via M1 to drug's elimination” value in data set [4] (humans, M1 plus A1 and A2) was “approximately 44%”. Besides, in data set [4] (oral 14C‐labeled ACT‐1004‐1239), the “unchanged drug recovered in excreta” value was 15%.
